Measurements from patent US20140271831A1, “RACECADOTRIL LIQUID COMPOSITIONS” (McNeil-PPC, Inc., priority 2013, published 2014).

Assay: Racecadotril and degradation products over time in Acetate and Citrate at pH 3.6, 4.0, 4.5 (untitled table)
Format: physicochemical
Design: key to Impurity C / Impurity G: % peak area relative to the Racecadotril peak
Settings: for RAC: in % (unit assumed)
Experimental: • 1. Pipet 1 mL of Racecadotril solution into a 100 mL volumetric flask (V.F.) • 2. Dilute to volume with the same buffer used in the solution preparation. • 3. […] Parameters may be modified to optimize chromatography. • The assay of Racecadotril is determined by using the external standard injected. The degradation products levels are determined by % peak area relative to the Racecadotril peak. [table] [table] Mobil Phase A: Phosphate buffer, pH 2.5 (Buffer prep: dissolve 1 g of potassium dihydrogen phosphate in water, adjust to pH 2.5 with phosphoric acid, dilute to 1000 mL with water) Mobil Phase B: 100% Acetonitrile

CC(=O)SCC(Cc1ccccc1)C(=O)NCC(=O)OCc1ccccc1 (racemic) [Racecadotril]
Benz Alcohol (Acetate, pH 3.6, 1 week): 0.69%
Impurity C (Acetate, pH 3.6, 1 week): 0.93
Impurity G (Acetate, pH 3.6, 1 week): 1.17
Thiorphan (Acetate, pH 3.6, 1 week): 0%
RAC (Acetate, pH 3.6, 1 week): 97.21
Benz Alcohol (Acetate, pH 3.6, 2 week): 1.4%
Impurity C (Acetate, pH 3.6, 2 week): 1.87
Impurity G (Acetate, pH 3.6, 2 week): 1.74
Thiorphan (Acetate, pH 3.6, 2 week): 0.11%
RAC (Acetate, pH 3.6, 2 week): 94.88
Benz Alcohol (Acetate, pH 3.6, 3 week): 2.13%
Impurity C (Acetate, pH 3.6, 3 week): 2.78
Impurity G (Acetate, pH 3.6, 3 week): 1.93
Thiorphan (Acetate, pH 3.6, 3 week): 0.14%
RAC (Acetate, pH 3.6, 3 week): 93.01
Benz Alcohol (Acetate, pH 3.6, 4 week): 2.84%
Impurity C (Acetate, pH 3.6, 4 week): 3.56
Impurity G (Acetate, pH 3.6, 4 week): 3
Thiorphan (Acetate, pH 3.6, 4 week): 0.3%
RAC (Acetate, pH 3.6, 4 week): 90.15
Benz Alcohol (Acetate, pH 3.6, 6 week): 4.33%
Impurity C (Acetate, pH 3.6, 6 week): 5.17
Impurity G (Acetate, pH 3.6, 6 week): 3.82
Thiorphan (Acetate, pH 3.6, 6 week): 0.57%
RAC (Acetate, pH 3.6, 6 week): 85.75
Benz Alcohol (Acetate, pH 3.6, 8 week): 5.78%
Impurity C (Acetate, pH 3.6, 8 week): 6.2
Impurity G (Acetate, pH 3.6, 8 week): 5.28
Thiorphan (Acetate, pH 3.6, 8 week): 1%
RAC (Acetate, pH 3.6, 8 week): 80.68
Benz Alcohol (Acetate, pH 3.6, Initial): 0%
Impurity C (Acetate, pH 3.6, Initial): 0
Impurity G (Acetate, pH 3.6, Initial): 0.07
Thiorphan (Acetate, pH 3.6, Initial): 0%
RAC (Acetate, pH 3.6, Initial): 99.93
Benz Alcohol (Acetate, pH 4.0, 1 week): 0.7%
Impurity C (Acetate, pH 4.0, 1 week): 0.93
Impurity G (Acetate, pH 4.0, 1 week): 1.36
Thiorphan (Acetate, pH 4.0, 1 week): 0%
RAC (Acetate, pH 4.0, 1 week): 97.01
Benz Alcohol (Acetate, pH 4.0, 2 week): 1.39%
Impurity C (Acetate, pH 4.0, 2 week): 1.82
Impurity G (Acetate, pH 4.0, 2 week): 1.7
Thiorphan (Acetate, pH 4.0, 2 week): 0.7%
RAC (Acetate, pH 4.0, 2 week): 95.02
Benz Alcohol (Acetate, pH 4.0, 3 week): 2.09%
Impurity C (Acetate, pH 4.0, 3 week): 2.83
Impurity G (Acetate, pH 4.0, 3 week): 2.66
Thiorphan (Acetate, pH 4.0, 3 week): 0.19%
RAC (Acetate, pH 4.0, 3 week): 92.23
Benz Alcohol (Acetate, pH 4.0, 4 week): 2.84%
Impurity C (Acetate, pH 4.0, 4 week): 3.52
Impurity G (Acetate, pH 4.0, 4 week): 3.62
Thiorphan (Acetate, pH 4.0, 4 week): 0.38%
RAC (Acetate, pH 4.0, 4 week): 89.5
Benz Alcohol (Acetate, pH 4.0, 6 week): 4.28%
Impurity C (Acetate, pH 4.0, 6 week): 5.16
Impurity G (Acetate, pH 4.0, 6 week): 5.67
Thiorphan (Acetate, pH 4.0, 6 week): 0.71%
RAC (Acetate, pH 4.0, 6 week): 83.98
Benz Alcohol (Acetate, pH 4.0, 8 week): 5.37%
Impurity C (Acetate, pH 4.0, 8 week): 6.2
Impurity G (Acetate, pH 4.0, 8 week): 8.46
Thiorphan (Acetate, pH 4.0, 8 week): 1.19%
RAC (Acetate, pH 4.0, 8 week): 78.53
Benz Alcohol (Acetate, pH 4.0, Initial): 0%
Impurity C (Acetate, pH 4.0, Initial): 0
Impurity G (Acetate, pH 4.0, Initial): 0
Thiorphan (Acetate, pH 4.0, Initial): 0%
RAC (Acetate, pH 4.0, Initial): 100
Benz Alcohol (Acetate, pH 4.5, 1 week): 0.022%
Impurity C (Acetate, pH 4.5, 1 week): 0.21
Impurity G (Acetate, pH 4.5, 1 week): 3.17
Thiorphan (Acetate, pH 4.5, 1 week): 0.02%
RAC (Acetate, pH 4.5, 1 week): 96.33
Benz Alcohol (Acetate, pH 4.5, 2 week): 0.4%
Impurity C (Acetate, pH 4.5, 2 week): 0.4
Impurity G (Acetate, pH 4.5, 2 week): 6.5
Thiorphan (Acetate, pH 4.5, 2 week): 0.04%
RAC (Acetate, pH 4.5, 2 week): 92.61
Benz Alcohol (Acetate, pH 4.5, 3 week): 0.59%
Impurity C (Acetate, pH 4.5, 3 week): 0.58
Impurity G (Acetate, pH 4.5, 3 week): 9.43
Thiorphan (Acetate, pH 4.5, 3 week): 0.06%
RAC (Acetate, pH 4.5, 3 week): 89.29
Benz Alcohol (Acetate, pH 4.5, 4 week): 0.79%
Impurity C (Acetate, pH 4.5, 4 week): 0.72
Impurity G (Acetate, pH 4.5, 4 week): 11.84
Thiorphan (Acetate, pH 4.5, 4 week): 0.11%
RAC (Acetate, pH 4.5, 4 week): 86.5
Benz Alcohol (Acetate, pH 4.5, 6 week): 1.14%
Impurity C (Acetate, pH 4.5, 6 week): 1.04
Impurity G (Acetate, pH 4.5, 6 week): 17.32
Thiorphan (Acetate, pH 4.5, 6 week): 0.2%
RAC (Acetate, pH 4.5, 6 week): 80.25
Benz Alcohol (Acetate, pH 4.5, 8 week): 1.51%
Impurity C (Acetate, pH 4.5, 8 week): 1.25
Impurity G (Acetate, pH 4.5, 8 week): 21.73
Thiorphan (Acetate, pH 4.5, 8 week): 0.36%
RAC (Acetate, pH 4.5, 8 week): 75.06
Benz Alcohol (Acetate, pH 4.5, Initial): 0.02%
Impurity C (Acetate, pH 4.5, Initial): 0.02
Impurity G (Acetate, pH 4.5, Initial): 0.21
Thiorphan (Acetate, pH 4.5, Initial): 0.01%
RAC (Acetate, pH 4.5, Initial): 99.68
Benz Alcohol (Citrate, pH 3.6, 1 week): 0.79%
Impurity C (Citrate, pH 3.6, 1 week): 0.98
Impurity G (Citrate, pH 3.6, 1 week): 1.78
Thiorphan (Citrate, pH 3.6, 1 week): 0%
RAC (Citrate, pH 3.6, 1 week): 96.45
Benz Alcohol (Citrate, pH 3.6, 2 week): 1.72%
Impurity C (Citrate, pH 3.6, 2 week): 2.3
Impurity G (Citrate, pH 3.6, 2 week): 3.81
Thiorphan (Citrate, pH 3.6, 2 week): 0.13%
RAC (Citrate, pH 3.6, 2 week): 92.01
Benz Alcohol (Citrate, pH 3.6, 3 week): 2.59%
Impurity C (Citrate, pH 3.6, 3 week): 3.36
Impurity G (Citrate, pH 3.6, 3 week): 5.52
Thiorphan (Citrate, pH 3.6, 3 week): 0.31%
RAC (Citrate, pH 3.6, 3 week): 88.22
Benz Alcohol (Citrate, pH 3.6, 4 week): 3.38%
Impurity C (Citrate, pH 3.6, 4 week): 4.23
Impurity G (Citrate, pH 3.6, 4 week): 7.38
Thiorphan (Citrate, pH 3.6, 4 week): 0.47%
RAC (Citrate, pH 3.6, 4 week): 84.51
Benz Alcohol (Citrate, pH 3.6, 6 week): 5.09%
Impurity C (Citrate, pH 3.6, 6 week): 6.13
Impurity G (Citrate, pH 3.6, 6 week): 9.72
Thiorphan (Citrate, pH 3.6, 6 week): 1.11%
RAC (Citrate, pH 3.6, 6 week): 77.91
Benz Alcohol (Citrate, pH 3.6, 8 week): 6.64%
Impurity C (Citrate, pH 3.6, 8 week): 7.54
Impurity G (Citrate, pH 3.6, 8 week): 12.47
Thiorphan (Citrate, pH 3.6, 8 week): 1.8%
RAC (Citrate, pH 3.6, 8 week): 71.51
Benz Alcohol (Citrate, pH 3.6, Initial): 0%
Impurity C (Citrate, pH 3.6, Initial): 0
Impurity G (Citrate, pH 3.6, Initial): 0.09
Thiorphan (Citrate, pH 3.6, Initial): 0%
RAC (Citrate, pH 3.6, Initial): 99.91
Benz Alcohol (Citrate, pH 4.0, 1 week): 0.89%
Impurity C (Citrate, pH 4.0, 1 week): 1.23
Impurity G (Citrate, pH 4.0, 1 week): 1.95
Thiorphan (Citrate, pH 4.0, 1 week): 0%
RAC (Citrate, pH 4.0, 1 week): 95.93
Benz Alcohol (Citrate, pH 4.0, 2 week): 1.41%
Impurity C (Citrate, pH 4.0, 2 week): 1.82
Impurity G (Citrate, pH 4.0, 2 week): 3.47
Thiorphan (Citrate, pH 4.0, 2 week): 0.11%
RAC (Citrate, pH 4.0, 2 week): 93.19
Benz Alcohol (Citrate, pH 4.0, 3 week): 2.36%
Impurity C (Citrate, pH 4.0, 3 week): 2.82
Impurity G (Citrate, pH 4.0, 3 week): 4.79
Thiorphan (Citrate, pH 4.0, 3 week): 0.21%
RAC (Citrate, pH 4.0, 3 week): 89.91
Benz Alcohol (Citrate, pH 4.0, 4 week): 2.79%
Impurity C (Citrate, pH 4.0, 4 week): 3.43
Impurity G (Citrate, pH 4.0, 4 week): 6.57
Thiorphan (Citrate, pH 4.0, 4 week): 0.4%
RAC (Citrate, pH 4.0, 4 week): 86.78
Benz Alcohol (Citrate, pH 4.0, 6 week): 4.19%
Impurity C (Citrate, pH 4.0, 6 week): 4.98
Impurity G (Citrate, pH 4.0, 6 week): 9.24
Thiorphan (Citrate, pH 4.0, 6 week): 0.85%
RAC (Citrate, pH 4.0, 6 week): 80.7
Benz Alcohol (Citrate, pH 4.0, 8 week): 5.54%
Impurity C (Citrate, pH 4.0, 8 week): 6.22
Impurity G (Citrate, pH 4.0, 8 week): 11.26
Thiorphan (Citrate, pH 4.0, 8 week): 1.42%
RAC (Citrate, pH 4.0, 8 week): 75.6
Benz Alcohol (Citrate, pH 4.0, Initial): 0%
Impurity C (Citrate, pH 4.0, Initial): 0
Impurity G (Citrate, pH 4.0, Initial): 0
Thiorphan (Citrate, pH 4.0, Initial): 0%
RAC (Citrate, pH 4.0, Initial): 100
Benz Alcohol (Citrate, pH 4.5, 1 week): 0.22%
Impurity C (Citrate, pH 4.5, 1 week): 0.18
Impurity G (Citrate, pH 4.5, 1 week): 3.15
Thiorphan (Citrate, pH 4.5, 1 week): 0.01%
RAC (Citrate, pH 4.5, 1 week): 96.44
Benz Alcohol (Citrate, pH 4.5, 2 week): 0.4%
Impurity C (Citrate, pH 4.5, 2 week): 0.36
Impurity G (Citrate, pH 4.5, 2 week): 6.04
Thiorphan (Citrate, pH 4.5, 2 week): 0.03%
RAC (Citrate, pH 4.5, 2 week): 93.19
Benz Alcohol (Citrate, pH 4.5, 3 week): 0.59%
Impurity C (Citrate, pH 4.5, 3 week): 0.52
Impurity G (Citrate, pH 4.5, 3 week): 8.66
Thiorphan (Citrate, pH 4.5, 3 week): 0.06%
RAC (Citrate, pH 4.5, 3 week): 90.2
Benz Alcohol (Citrate, pH 4.5, 4 week): 0.79%
Impurity C (Citrate, pH 4.5, 4 week): 0.62
Impurity G (Citrate, pH 4.5, 4 week): 11.16
Thiorphan (Citrate, pH 4.5, 4 week): 0.1%
RAC (Citrate, pH 4.5, 4 week): 87.41
Benz Alcohol (Citrate, pH 4.5, 6 week): 1.14%
Impurity C (Citrate, pH 4.5, 6 week): 0.9
Impurity G (Citrate, pH 4.5, 6 week): 15.86
Thiorphan (Citrate, pH 4.5, 6 week): 0.17%
RAC (Citrate, pH 4.5, 6 week): 82.05
Benz Alcohol (Citrate, pH 4.5, 8 week): 1.51%
Impurity C (Citrate, pH 4.5, 8 week): 1.11
Impurity G (Citrate, pH 4.5, 8 week): 19.95
Thiorphan (Citrate, pH 4.5, 8 week): 0.29%
RAC (Citrate, pH 4.5, 8 week): 77.34
Benz Alcohol (Citrate, pH 4.5, Initial): 0.02%
Impurity C (Citrate, pH 4.5, Initial): 0.01
Impurity G (Citrate, pH 4.5, Initial): 0.19
Thiorphan (Citrate, pH 4.5, Initial): 0.01%
RAC (Citrate, pH 4.5, Initial): 99.71
